Among the data in ChEMBL document CHEMBL1201862, “PubChem BioAssay data set” (2004) are IC50, EC50 and AC50 values, retold here.

The source made the active and inactive calls. A value given as a limit tells only on which side of the number the result lay.

The target in assay [1] is Tyrosine-protein phosphatase non-receptor type 11 (Homo sapiens, UniProt Q06124). The assay is described as follows: SHP2 phosphatase inhibition, dose response, selectivity assay for STEP inhibitor project, biochemical (AID 602367). In kind it is functional. Conditions: read-out: IC50_Mean.
Assay [2] has as its target T1, Dual specificity protein phosphatase 3 (Homo sapiens, UniProt P51452). The assay is described as follows: SAR VHR1 Fluorescent Assay for In Vitro dose response studies Set 2. [Related pubchem assays (depositor defined):AID1654, AID1661, AID1878]. In kind it is functional.
For assay [3], the target named is T2, Tyrosine-protein phosphatase non-receptor type 7 (Homo sapiens, UniProt P35236).
T2 sequence (P35236 whole entry): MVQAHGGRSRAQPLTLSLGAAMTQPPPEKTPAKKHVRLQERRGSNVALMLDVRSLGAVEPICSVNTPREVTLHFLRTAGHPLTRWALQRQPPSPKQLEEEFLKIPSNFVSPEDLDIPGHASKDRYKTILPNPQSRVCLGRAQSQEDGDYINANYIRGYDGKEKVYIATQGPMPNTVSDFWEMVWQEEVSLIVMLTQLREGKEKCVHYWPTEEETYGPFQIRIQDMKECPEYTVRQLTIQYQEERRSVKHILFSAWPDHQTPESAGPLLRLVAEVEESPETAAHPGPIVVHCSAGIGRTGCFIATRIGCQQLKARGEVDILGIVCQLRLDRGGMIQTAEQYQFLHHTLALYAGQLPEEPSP
As to the kind of experiment: SAR analysis of chemical inhibitors of HePTP using a Fluorescent assay - Set 2. [Related pubchem assays (depositor defined):AID1059, AID1077, AID1661, AID2085, AID521]. In kind it is functional.

The target in assay [4] is Tyrosine-protein phosphatase non-receptor type 5 (Homo sapiens, UniProt P54829). The assay is described as follows: STEP phosphatase inhibitors, confirmation, biochemical, fluorescence intensity, uHTS hits (AID 602372). In kind it is functional. Conditions: read-out: IC50_Mean.
Assay [5] deals with T1, Dual specificity protein phosphatase 3. The assay is described as follows: VHR phosphatase inhibition, dose response, selectivity assay for STEP inhibitor project, biochemical (AID 602374). In kind it is functional. As to conditions: read-out: IC50_Mean.
The target of assay [6] is T3, Ubiquitin-conjugating enzyme E2 N (Homo sapiens, UniProt P61088).
T3 sequence (P61088 whole entry): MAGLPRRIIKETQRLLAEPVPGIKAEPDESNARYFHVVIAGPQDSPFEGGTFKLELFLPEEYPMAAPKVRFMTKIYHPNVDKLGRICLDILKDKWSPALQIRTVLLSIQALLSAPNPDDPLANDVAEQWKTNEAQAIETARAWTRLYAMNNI
In kind it is functional.

Assay [7] addresses T4, Bcl-2-related protein A1 (Mus musculus, UniProt Q07440).
T4 sequence (Q07440 whole entry): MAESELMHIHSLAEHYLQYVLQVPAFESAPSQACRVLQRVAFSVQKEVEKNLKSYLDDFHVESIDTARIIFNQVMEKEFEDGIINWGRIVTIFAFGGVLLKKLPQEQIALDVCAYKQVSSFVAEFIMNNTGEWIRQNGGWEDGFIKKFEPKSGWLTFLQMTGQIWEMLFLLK
Format: functional.

Assay [8] deals with T5, Type-1 angiotensin II receptor (Homo sapiens, UniProt P30556).
T5 sequence (P30556 whole entry): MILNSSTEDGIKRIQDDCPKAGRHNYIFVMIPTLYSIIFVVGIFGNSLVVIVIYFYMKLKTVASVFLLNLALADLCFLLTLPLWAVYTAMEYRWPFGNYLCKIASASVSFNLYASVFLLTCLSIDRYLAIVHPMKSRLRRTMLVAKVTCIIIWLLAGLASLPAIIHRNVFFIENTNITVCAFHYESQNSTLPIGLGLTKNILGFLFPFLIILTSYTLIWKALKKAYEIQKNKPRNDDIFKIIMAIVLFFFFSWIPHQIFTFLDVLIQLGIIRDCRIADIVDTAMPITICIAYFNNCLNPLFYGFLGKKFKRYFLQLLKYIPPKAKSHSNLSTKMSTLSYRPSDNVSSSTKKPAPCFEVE
The assay is described as follows: AT1 receptor agonists, dose response, selectivity assay for APJ receptor agonist project, cell-based, uHTS hits (AID 488865).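 Also: beta-arrestin recruitment to AT1 measured by enzyme fragment complementation luminescence.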 Format: functional.

Assay [9] concerns the target T3, Ubiquitin-conjugating enzyme E2 N. In kind it is functional. This is another data set of the same source.
Assay [10] concerns the target T6, DNA repair protein RAD52 homolog (Homo sapiens, UniProt P43351).
T6 sequence (P43351 whole entry): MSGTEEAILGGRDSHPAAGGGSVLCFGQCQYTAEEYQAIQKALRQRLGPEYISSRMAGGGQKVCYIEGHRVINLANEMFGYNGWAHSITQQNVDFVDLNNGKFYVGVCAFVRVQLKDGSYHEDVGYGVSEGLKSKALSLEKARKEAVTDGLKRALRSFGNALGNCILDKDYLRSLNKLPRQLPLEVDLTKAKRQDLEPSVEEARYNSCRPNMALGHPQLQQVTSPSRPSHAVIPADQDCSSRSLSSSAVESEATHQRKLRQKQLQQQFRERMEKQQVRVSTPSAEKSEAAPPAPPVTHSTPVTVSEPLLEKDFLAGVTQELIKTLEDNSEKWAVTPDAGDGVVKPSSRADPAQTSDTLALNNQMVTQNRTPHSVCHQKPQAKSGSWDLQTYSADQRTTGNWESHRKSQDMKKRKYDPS
In kind it is functional, biochemical.

Assay [11] deals with T7, Cannabinoid receptor 2 (Homo sapiens, UniProt P34972). The assay is described as follows: SAR analysis of agonists of the Cannabinoid Receptor 2 using an Image-Based Assay - Set 3. [Related pubchem assays (depositor defined):AID2013, AID2026]. In kind it is functional.
In assay [12] the target is T7, Cannabinoid receptor 2. As to the kind of experiment: SAR analysis of antagonists of the Cannabinoid Receptor 2 using an Image-Based Assay - Set 3. [Related pubchem assays (depositor defined):AID2013, AID2026]. Format: functional.
The target in assay [13] is T8, Cannabinoid receptor 1 (Homo sapiens, UniProt P21554). The assay is described as follows: SAR analysis of agonists of the Cannabinoid Receptor 1 using an Image-Based Assay - Set 4. [Related pubchem assays (depositor defined):AID2013, AID2026]. In kind it is functional.
In assay [14] the target is T8, Cannabinoid receptor 1. As to the kind of experiment: SAR analysis of antagonists of the Cannabinoid Receptor 1 using an Image-Based Assay - Set 4. [Related pubchem assays (depositor defined):AID2013, AID2026]. In kind it is functional.
Assay [15] addresses T9, G-protein coupled receptor 35 (Homo sapiens, UniProt Q9HC97). The assay is described as follows: SAR analysis of Antagonists of the GPR35 Receptor using an Image-Based Assay - Set 6. [Related pubchem assays (depositor defined):AID2013, AID2026]. In kind it is functional.
In assay [16] the target is G-protein coupled receptor 55 (Homo sapiens, UniProt Q9Y2T6). As to the kind of experiment: SAR Analysis of Selective Antagonists of GPR55 using an Image-Based Assay - Set 4. [Related pubchem assays (depositor defined):AID2013, AID2026]. In kind it is functional.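 Also: antagonism of response to 5 µM lysophosphatidylinositol agonist.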
Assay [17] addresses T9, G-protein coupled receptor 35. The assay is described as follows: SAR analysis of Agonists of the GPR35 Receptor using an Image-Based Assay - Set 4. [Related pubchem assays (depositor defined):AID2013, AID2026]. In kind it is functional.

T7 sequence (P34972 whole entry): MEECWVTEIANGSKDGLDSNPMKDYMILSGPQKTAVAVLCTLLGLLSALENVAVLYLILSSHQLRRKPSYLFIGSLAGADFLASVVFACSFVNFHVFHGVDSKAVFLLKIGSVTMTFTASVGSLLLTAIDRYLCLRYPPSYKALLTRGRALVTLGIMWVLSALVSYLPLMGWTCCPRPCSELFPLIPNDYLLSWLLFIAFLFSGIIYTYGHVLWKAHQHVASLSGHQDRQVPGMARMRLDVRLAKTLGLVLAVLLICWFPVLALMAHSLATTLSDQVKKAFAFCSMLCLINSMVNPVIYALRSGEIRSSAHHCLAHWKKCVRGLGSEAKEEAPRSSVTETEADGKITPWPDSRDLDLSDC
T1 sequence (P51452 whole entry): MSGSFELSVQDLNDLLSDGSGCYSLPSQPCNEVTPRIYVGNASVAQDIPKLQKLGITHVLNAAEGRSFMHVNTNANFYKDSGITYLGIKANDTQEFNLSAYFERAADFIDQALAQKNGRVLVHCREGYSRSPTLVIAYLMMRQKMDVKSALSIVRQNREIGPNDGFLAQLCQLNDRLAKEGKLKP
T8 sequence (P21554 whole entry): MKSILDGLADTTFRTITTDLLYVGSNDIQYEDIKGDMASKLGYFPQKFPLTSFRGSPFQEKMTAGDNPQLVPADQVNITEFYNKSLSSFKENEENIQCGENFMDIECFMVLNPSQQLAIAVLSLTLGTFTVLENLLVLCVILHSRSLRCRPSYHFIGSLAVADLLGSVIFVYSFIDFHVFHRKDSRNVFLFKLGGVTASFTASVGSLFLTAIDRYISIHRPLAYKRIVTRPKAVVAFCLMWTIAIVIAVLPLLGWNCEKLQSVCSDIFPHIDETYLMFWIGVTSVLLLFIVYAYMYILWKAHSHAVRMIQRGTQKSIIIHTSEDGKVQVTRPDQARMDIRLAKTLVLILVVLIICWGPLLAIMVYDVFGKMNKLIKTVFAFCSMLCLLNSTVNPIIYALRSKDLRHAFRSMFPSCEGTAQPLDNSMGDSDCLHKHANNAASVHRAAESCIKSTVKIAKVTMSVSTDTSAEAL
T9 sequence (Q9HC97 whole entry): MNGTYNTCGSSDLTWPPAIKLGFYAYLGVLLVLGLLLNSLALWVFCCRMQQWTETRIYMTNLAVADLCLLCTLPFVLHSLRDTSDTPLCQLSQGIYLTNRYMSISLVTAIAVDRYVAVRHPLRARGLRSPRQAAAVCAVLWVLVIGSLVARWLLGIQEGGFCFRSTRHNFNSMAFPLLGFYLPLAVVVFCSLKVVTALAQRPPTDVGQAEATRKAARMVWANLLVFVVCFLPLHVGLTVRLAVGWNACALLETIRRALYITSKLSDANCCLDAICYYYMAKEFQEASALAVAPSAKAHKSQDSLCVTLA
Chain of Tyrosine-protein phosphatase non-receptor type 5 (P54829 whole entry): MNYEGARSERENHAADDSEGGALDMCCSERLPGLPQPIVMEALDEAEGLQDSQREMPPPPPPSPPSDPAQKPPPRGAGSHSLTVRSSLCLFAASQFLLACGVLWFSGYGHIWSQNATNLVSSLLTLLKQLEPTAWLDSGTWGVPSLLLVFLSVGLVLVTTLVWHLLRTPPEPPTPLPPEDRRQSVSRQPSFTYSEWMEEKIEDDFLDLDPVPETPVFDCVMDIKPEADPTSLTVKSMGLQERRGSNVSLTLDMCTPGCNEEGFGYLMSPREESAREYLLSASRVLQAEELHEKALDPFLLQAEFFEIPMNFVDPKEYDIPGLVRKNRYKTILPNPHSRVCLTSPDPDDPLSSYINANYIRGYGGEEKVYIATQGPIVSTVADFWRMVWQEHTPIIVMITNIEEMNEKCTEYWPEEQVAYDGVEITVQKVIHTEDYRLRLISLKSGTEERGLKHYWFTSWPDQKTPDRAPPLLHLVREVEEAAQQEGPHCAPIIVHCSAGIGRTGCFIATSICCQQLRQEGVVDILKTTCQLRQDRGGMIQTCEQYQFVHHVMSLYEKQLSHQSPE
Chain of Tyrosine-protein phosphatase non-receptor type 11 (Q06124 whole entry): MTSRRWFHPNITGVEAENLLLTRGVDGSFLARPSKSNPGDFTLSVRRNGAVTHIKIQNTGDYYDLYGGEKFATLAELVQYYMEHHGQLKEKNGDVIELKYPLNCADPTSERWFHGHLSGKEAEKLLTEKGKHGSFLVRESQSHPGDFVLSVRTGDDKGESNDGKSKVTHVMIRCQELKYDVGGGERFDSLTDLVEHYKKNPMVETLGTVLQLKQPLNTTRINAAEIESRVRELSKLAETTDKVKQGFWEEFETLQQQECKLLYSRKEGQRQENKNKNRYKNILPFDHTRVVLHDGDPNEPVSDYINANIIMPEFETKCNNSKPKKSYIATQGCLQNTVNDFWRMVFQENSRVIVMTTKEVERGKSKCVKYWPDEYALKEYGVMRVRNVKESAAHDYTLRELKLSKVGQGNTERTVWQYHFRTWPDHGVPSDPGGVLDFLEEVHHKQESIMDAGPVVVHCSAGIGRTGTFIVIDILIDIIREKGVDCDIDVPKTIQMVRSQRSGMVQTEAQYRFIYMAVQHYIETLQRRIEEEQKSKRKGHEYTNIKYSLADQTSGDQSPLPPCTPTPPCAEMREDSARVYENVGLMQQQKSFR
Chain of G-protein coupled receptor 55 (Q9Y2T6 whole entry): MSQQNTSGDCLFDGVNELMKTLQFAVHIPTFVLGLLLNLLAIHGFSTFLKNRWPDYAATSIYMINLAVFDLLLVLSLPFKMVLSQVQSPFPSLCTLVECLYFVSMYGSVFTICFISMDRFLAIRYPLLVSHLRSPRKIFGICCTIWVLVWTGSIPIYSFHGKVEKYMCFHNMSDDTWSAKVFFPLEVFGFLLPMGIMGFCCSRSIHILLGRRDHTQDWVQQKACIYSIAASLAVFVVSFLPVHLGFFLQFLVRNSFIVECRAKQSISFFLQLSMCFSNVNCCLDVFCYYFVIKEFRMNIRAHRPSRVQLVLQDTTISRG

In the case of `CN1CCN(C(S)=Nc2ccc(S(N)(=O)=O)cc2)CC1`, the IC50 in assay [1] was 6.54 µM (active); in assay [2], 15.4 µM (active); in assay [3], 27.4 µM (active); in assay [4] it was 27.8 µM (inactive); in assay [5], 1.32 µM (active).
For `CCOc1cccc2sc(N(CCCN(C)C)C(=O)c3ccc(S(=O)(=O)N4CCc5ccccc5C4)cc3)nc12`, the results for the IC50 in [6], in assay [7] and in assay [9] were 8.33 µM (active), > 20 µM (inactive) and 7.45 µM (active), respectively. In [8], the EC50 was > 100 µM (inactive). The AC50 in assay [10] was 21.2 µM (active).
On to `N=c1c(C(=O)NCCN2CCOCC2)cc2c(=O)n3ccccc3nc2n1C1CCCC1`, for which the concentration giving a half-maximal response (EC50) in assay [11] is 8.59 µM (active); in [13], > 32 µM (inactive); in assay [17], > 32 µM (inactive). In addition, the IC50 in assay [12], in assay [14], in assay [15] and in assay [16] was > 32 µM (inactive) each time.

A word on the EC50: it is the concentration that produces a half-maximal response. In general, AC50 refers to the concentration at which the activity in the assay is half-maximal.
